Test results: ChEMBL document CHEMBL1201862, “PubChem BioAssay data set” (2004)
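Grown in 96-well plates, cells were treated for 48 hours with each compound at five concentrations. Insufficient inhibition: endpoint recorded as highest concentration tested. GI50 = concentration required for 50% inhibition of growth.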 Active and inactive are the calls of the source. Rule as the data show it: active = GI50 up to about 1.1 µM and inactive = higher.

Columns and labels:
Test in all cases: NCI-60 cell line screen, 48 h
SK-OV-3 = tested on: SK-OV-3
NCI/ADR-RES = tested on: NCI/ADR-RES
CAKI-1 = tested on: CAKI-1
MCF7 = tested on: MCF7
OVCAR-5 = tested on: OVCAR-5
SK-MEL-28 = tested on: SK-MEL-28
COLO 205 = tested on: COLO 205
OVCAR-3 = tested on: OVCAR-3
SW-620 = tested on: SW-620
PC-3 = tested on: PC-3
ACHN = tested on: ACHN
MOLT-4 = tested on: MOLT-4
RPMI-8226 = tested on: RPMI-8226
SK-MEL-2 = tested on: SK-MEL-2
UACC-62 = tested on: UACC-62
HOP-92 = tested on: HOP-92
M14 = tested on: M14
Hs-578T = tested on: Hs-578T
A549 = tested on: A549
T47D = tested on: T47D

SMILES	GI50 (SK-OV-3)	GI50 (NCI/ADR-RES)	GI50 (CAKI-1)	GI50 (MCF7)	GI50 (OVCAR-5)	GI50 (SK-MEL-28)	GI50 (COLO 205)	GI50 (OVCAR-3)	GI50 (SW-620)	GI50 (PC-3)	GI50 (ACHN)	GI50 (MOLT-4)	GI50 (RPMI-8226)	GI50 (SK-MEL-2)	GI50 (UACC-62)	GI50 (HOP-92)	GI50 (M14)	GI50 (Hs-578T)	GI50 (A549)	GI50 (T47D)
Cn1c(=O)n2n(c1=O)C([S+]([O-])c1ccccc1)C2 (stereo not given)	> 100 µM (inactive)	> 100 µM (inactive)	> 100 µM (inactive)	> 100 µM (inactive)	> 100 µM (inactive)	> 100 µM (inactive)	> 100 µM (inactive)	> 100 µM (inactive)	> 100 µM (inactive)	33.4 µM (inactive)	> 100 µM (inactive)	18.5 µM (inactive)	> 100 µM (inactive)	> 100 µM (inactive)	> 100 µM (inactive)	> 100 µM (inactive)	> 100 µM (inactive)	> 100 µM (inactive)	65.2 µM (inactive)	–
COc1ccc(CCc2cc(OC)c(OC)c(OC)c2)cc1	0.0236 µM (active)	0.0622 µM (active)	0.0206 µM (active)	0.0283 µM (active)	0.456 µM (active)	0.183 µM (active)	0.0191 µM (active)	0.02 µM (active)	0.0171 µM (active)	0.043 µM (active)	0.824 µM (active)	0.0331 µM (active)	0.0309 µM (active)	0.146 µM (active)	0.0165 µM (active)	0.805 µM (active)	0.0318 µM (active)	0.0438 µM (active)	0.0403 µM (active)	–
Cc1ccc2c(O)cc(-c3ccc4ccccc4c3)nc2n1	3.37 µM (inactive)	4.58 µM (inactive)	–	2.28 µM (inactive)	19.3 µM (inactive)	5.9 µM (inactive)	2.11 µM (inactive)	–	2.8 µM (inactive)	–	4.72 µM (inactive)	4.45 µM (inactive)	4.48 µM (inactive)	5.97 µM (inactive)	3.64 µM (inactive)	1.5 µM (inactive)	8.89 µM (inactive)	3.1 µM (inactive)	7.89 µM (inactive)	7 µM (inactive)
O=C(O)c1ccccc1C1c2ccccc2Oc2ccccc21	–	59.7 µM (inactive)	34.1 µM (inactive)	–	> 100 µM (inactive)	> 100 µM (inactive)	–	27.9 µM (inactive)	> 100 µM (inactive)	65.9 µM (inactive)	34.6 µM (inactive)	38.9 µM (inactive)	54.6 µM (inactive)	23.4 µM (inactive)	25.8 µM (inactive)	19.1 µM (inactive)	> 100 µM (inactive)	–	48.6 µM (inactive)	71.9 µM (inactive)
COC(=O)C1=C(C(=O)OC)C(OO)(c2ccccc2)OC1=O (stereo not given)	> 100 µM (inactive)	> 100 µM (inactive)	> 100 µM (inactive)	52.1 µM (inactive)	40.6 µM (inactive)	> 100 µM (inactive)	> 100 µM (inactive)	> 100 µM (inactive)	> 100 µM (inactive)	38.6 µM (inactive)	> 100 µM (inactive)	> 100 µM (inactive)	–	55.2 µM (inactive)	34.2 µM (inactive)	> 100 µM (inactive)	> 100 µM (inactive)	–	> 100 µM (inactive)	> 100 µM (inactive)
CCOP(=O)(OCC)/C(C#N)=C/c1coc2cc(C)cc(C)c2c1=O	> 100 µM (inactive)	> 100 µM (inactive)	> 100 µM (inactive)	> 100 µM (inactive)	> 100 µM (inactive)	> 100 µM (inactive)	> 100 µM (inactive)	> 100 µM (inactive)	> 100 µM (inactive)	> 100 µM (inactive)	> 100 µM (inactive)	> 100 µM (inactive)	> 100 µM (inactive)	> 100 µM (inactive)	67 µM (inactive)	> 100 µM (inactive)	> 100 µM (inactive)	> 100 µM (inactive)	> 100 µM (inactive)	–
COc1cc(C(=O)c2cocc2C(=O)c2ccc3c(c2)OCO3)cc(OC)c1OC	2.49 µM (inactive)	0.142 µM (active)	0.378 µM (active)	0.217 µM (active)	18.6 µM (inactive)	1.46 µM (inactive)	4.91 µM (inactive)	0.304 µM (active)	0.316 µM (active)	0.355 µM (active)	0.977 µM (active)	0.991 µM (active)	0.628 µM (active)	0.619 µM (active)	0.311 µM (active)	2.69 µM (inactive)	1 µM (active)	0.274 µM (active)	5.26 µM (inactive)	–
Sc1ncc2[nH]nnc2n1	–	> 100 µM (inactive)	> 100 µM (inactive)	> 100 µM (inactive)	> 100 µM (inactive)	> 100 µM (inactive)	> 100 µM (inactive)	> 100 µM (inactive)	> 100 µM (inactive)	> 100 µM (inactive)	> 100 µM (inactive)	> 100 µM (inactive)	> 100 µM (inactive)	–	–	> 100 µM (inactive)	–	> 100 µM (inactive)	> 100 µM (inactive)	–
O=C(C#Cc1ccccc1)N1c2ccccc2CC1c1c[nH]c2ccccc12 (stereo not given)	20.4 µM (inactive)	–	11.4 µM (inactive)	–	24.8 µM (inactive)	14.9 µM (inactive)	14.5 µM (inactive)	14.6 µM (inactive)	15.3 µM (inactive)	–	19.7 µM (inactive)	9.02 µM (inactive)	13 µM (inactive)	12.5 µM (inactive)	7.82 µM (inactive)	15.3 µM (inactive)	15 µM (inactive)	–	18.6 µM (inactive)	–
CCC1(Br)C(=O)NC(=O)N(C2CC(O)C(CO)O2)C1N=[N+]=[N-] (stereo not given)	> 100 µM (inactive)	–	> 100 µM (inactive)	–	> 100 µM (inactive)	> 100 µM (inactive)	> 100 µM (inactive)	> 100 µM (inactive)	> 100 µM (inactive)	–	> 100 µM (inactive)	> 100 µM (inactive)	> 100 µM (inactive)	> 100 µM (inactive)	> 100 µM (inactive)	> 100 µM (inactive)	> 100 µM (inactive)	–	> 100 µM (inactive)	–
NC(=O)C(=Cc1ccc(C(O)P(=O)(O)O)cc1)C(N)=O (stereo not given)	> 100 µM (inactive)	–	> 100 µM (inactive)	–	> 100 µM (inactive)	> 100 µM (inactive)	> 100 µM (inactive)	> 100 µM (inactive)	> 100 µM (inactive)	–	> 100 µM (inactive)	> 100 µM (inactive)	> 100 µM (inactive)	> 100 µM (inactive)	> 100 µM (inactive)	> 100 µM (inactive)	> 100 µM (inactive)	–	> 100 µM (inactive)	–
Cc1cc(NS(=O)(=O)c2ccc(Nc3c4ccccc4nc4c(C(=O)Nc5ccc(S(=O)(=O)N=C(N)N)cc5)cccc34)cc2)no1	> 100 µM (inactive)	–	> 100 µM (inactive)	–	> 100 µM (inactive)	> 100 µM (inactive)	> 100 µM (inactive)	> 100 µM (inactive)	> 100 µM (inactive)	–	> 100 µM (inactive)	> 100 µM (inactive)	> 100 µM (inactive)	> 100 µM (inactive)	> 100 µM (inactive)	> 100 µM (inactive)	> 100 µM (inactive)	–	> 100 µM (inactive)	–
OCC(O)C(O)c1nn(-c2ccccc2)c2nc3cc(Cl)c(Cl)cc3nc12 (stereo not given)	30.6 µM (inactive)	–	16.6 µM (inactive)	–	14.8 µM (inactive)	41.3 µM (inactive)	24.7 µM (inactive)	27.4 µM (inactive)	28.6 µM (inactive)	–	19.5 µM (inactive)	13.7 µM (inactive)	8.93 µM (inactive)	22.3 µM (inactive)	29.4 µM (inactive)	35.7 µM (inactive)	27.9 µM (inactive)	–	15.6 µM (inactive)	–
Cc1ccc(C)c(N2C(=O)C(=O)C(c3nc4ccccc4s3)/C(=N/N)C2=O)c1 (stereo not given)	> 100 µM (inactive)	–	> 100 µM (inactive)	–	> 100 µM (inactive)	> 100 µM (inactive)	> 39.3 µM (inactive)	> 100 µM (inactive)	> 100 µM (inactive)	–	> 100 µM (inactive)	> 100 µM (inactive)	> 100 µM (inactive)	> 100 µM (inactive)	> 100 µM (inactive)	> 100 µM (inactive)	> 100 µM (inactive)	–	> 100 µM (inactive)	–
Cc1ccc(S(=O)(=O)O/N=C2\CCC\C2=C/c2ccccc2)cc1	63.4 µM (inactive)	–	17.6 µM (inactive)	–	23 µM (inactive)	11.1 µM (inactive)	16.3 µM (inactive)	18.5 µM (inactive)	29.6 µM (inactive)	–	11.1 µM (inactive)	13 µM (inactive)	16 µM (inactive)	16.9 µM (inactive)	8.45 µM (inactive)	15.7 µM (inactive)	21.3 µM (inactive)	–	29.4 µM (inactive)	–
N#CC(C(=O)CCCC(=O)Nc1ccccc1[N+](=O)[O-])c1c(Cl)cccc1Cl (stereo not given)	> 100 µM (inactive)	–	> 100 µM (inactive)	–	> 100 µM (inactive)	> 100 µM (inactive)	> 100 µM (inactive)	> 100 µM (inactive)	> 100 µM (inactive)	–	> 100 µM (inactive)	> 100 µM (inactive)	> 100 µM (inactive)	> 100 µM (inactive)	> 100 µM (inactive)	61.9 µM (inactive)	> 100 µM (inactive)	–	> 100 µM (inactive)	–
CCc1cccc2c3c([nH]c12)-c1ccccc1NC(=O)C3	> 100 µM (inactive)	> 100 µM (inactive)	43.6 µM (inactive)	18.3 µM (inactive)	> 100 µM (inactive)	> 100 µM (inactive)	> 100 µM (inactive)	> 100 µM (inactive)	> 100 µM (inactive)	–	–	8.89 µM (inactive)	67.5 µM (inactive)	> 100 µM (inactive)	65.9 µM (inactive)	> 100 µM (inactive)	> 100 µM (inactive)	30.7 µM (inactive)	> 100 µM (inactive)	3.66 µM (inactive)
